Test results from PMC9099123 (Clinical and Translational Science, 2022).
“And” between values parts separate entries of the source, which are not always exact repeats. Identical values can stand only once.

Tests used:
[1] = Plasma PK of enzalutamide and N-desmethyl enzalutamide in men with mCRPC
[2] = test system: P-gp; experiment: Effect of enzalutamide on PK of digoxin; assay type: in vivo, human
[3] = Safety and tolerability; assay type: in vivo, human; settings: for TEAEs considered related to the drug: single dose in cocktail, days 1 and 64
[4] = Plasma PK of digoxin and rosuvastatin; settings: for AUC(0-inf) / AUC(0-t) / Cmax / Vd/F / half-life: male, human, in vivo; for AUC(0-inf): AUCinf; for AUC(0-t): AUClast; for Vd/F: Vz/F; for half-life: t½
[5] = Urine PK of digoxin in men with mCRPC; assay type: in vivo, human; settings: for CL renal: male, human, oral, CLR; for CL renal / Aelast%, GLSM / Aelast%, Mean ± SD / Aelast%, Median (range) / Aelast, Median (range): urine; for Aelast, Mean ± SD: urine up to 24 h
[6] = test system: CYP2C19; settings: previous clinical DDI studies, cited from earlier work
[7] = test system: CYP2C9; settings: previous clinical DDI studies, cited from earlier work
[8] = clinical; settings: male, human, plasma
[9] = test system: CYP3A4; settings: previous clinical DDI studies, cited from earlier work
[10] = test system: BCRP; experiment: Effect of enzalutamide on PK of rosuvastatin; assay type: in vivo, human
[11] = test system: CYP3A4; settings: human hepatocytes; ref data on file; cited from earlier work
[12] = digoxin co-administered with enzalutamide versus taken alone
[13] = digoxin plasma, day 64 vs day 1
[14] = GLSM, plasma, Enzalutamide + cocktail (day 64)
[15] = Mean ± SD, plasma, Cocktail (day 1)
[16] = Median (range), plasma, Cocktail (day 1)
[17] = Mean ± SD, plasma, Enzalutamide + cocktail (day 64)
[18] = Median (range), plasma, Enzalutamide + cocktail (day 64)
[19] = plasma, Enzalutamide + cocktail (day 64)
[20] = Enzalutamide + cocktail (day 64)
[21] = following enzalutamide, 2 patients
[22] = rosuvastatin co-administered with enzalutamide versus taken alone
[23] = rosuvastatin plasma, day 64 vs day 1

## CC1(C)C(=O)N(c2ccc(C#N)c(C(F)(F)F)c2)C(=S)N1c1ccc(C(N)=O)c(F)c1 [N‐desmethyl enzalutamide]
[1]; day 35
  Mean Ctrough: 9.1 µg/mL
[1]; day 64
  AUCtau, Mean ± SD: 259 ± 37.9 µg·h/mL
  AUCtau, Median (range): 251 (189–327) h·µg/ml
  Cmax, Median (range): 12.1 (8.9–15.3) µg/ml
  Ctrough, Mean ± SD: 11.6 µg/mL and 11.6 ± 1.9 µg/mL
  Ctrough, Median (range): 11.7 (7.7–15.0) µg/ml
[1]; day 64, enzalutamide 160 mg oral once daily from day 8
  Cmax, Mean ± SD: 12.3 ± 1.7 µg/mL
[1]; day 68
  Mean Ctrough: 11.9 µg/mL
[1]; day 71
  Mean Ctrough: 12.1 µg/mL

## C[C@H]1O[C@@H](O[C@H]2[C@@H](O)C[C@H](O[C@H]3[C@@H](O)C[C@H](O[C@H]4CC[C@@]5(C)[C@H](CC[C@@H]6[C@@H]5C[C@@H](O)[C@]5(C)[C@@H](C7=CC(=O)OC7)CC[C@]65O)C4)O[C@@H]3C)O[C@@H]2C)C[C@H](O)[C@@H]1O [digoxin]
[2]; [12]
  increase in AUCinf (GLSM ratio): 33%
  increase in AUClast (GLSM ratio): 29%
  increase in Cmax (GLSM ratio): 17%
[2]; [13]
  AUCinf, GLSM ratio (95% CI): 133.5 (125.3–142.2)
  AUClast, GLSM ratio (95% CI): 129.1 (121.0–137.7)
[2]; digoxin plasma, enzalutamide + cocktail (day 64) vs cocktail (day 1)
  Cmax, GLSM ratio (95% CI): 117.0 (105.8–129.3)
[2]; digoxin urine, co-administered with enzalutamide
  decrease in Aelast%: 10%
[2]; digoxin urine, day 64 vs day 1
  Aelast%, GLSM ratio (95% CI): 89.6 (79.1–101.6)
[2]; digoxin, co-administered with enzalutamide
  decrease in CLR: 22%
[3]
  TEAEs considered related to the drug: no TEAEs were considered to be related
[4]; cocktail day 1, 0.5–168 h postdose, above LLOQ
  digoxin plasma concentrations, all patients: > 10 pg/mL
[4]; GLSM, plasma, Cocktail (day 1)
  AUC(0-inf): 24.1 ng·h/mL
  AUC(0-t): 21.7 ng·h/mL
[4]; [14]
  AUC(0-inf): 32.1 ng·h/mL
  AUC(0-t): 28 ng·h/mL
[4]; [15]
  AUC(0-inf): 24.6 ng·h/mL
  AUC(0-t): 22.1 ng·h/mL
  Vd/F: 785 ± 138 L
  half-life: 2.18 ± 0.342 days
[4]; [16]
  AUC(0-inf): 25.1 ng·h/mL
  AUC(0-t): 22.7 ng·h/mL
  Cmax: 1.47 ng/mL
  Vd/F: 786 L
  half-life: 2.1 days
[4]; [17]
  AUC(0-t): 28.7 ng·h/mL
  Vd/F: 710 ± 114 L
  half-life: 2.65 ± 0.396 days
[4]; [18]
  AUC(0-t): 27.1 ng·h/mL
  Cmax: 1.62 ng/mL
  Vd/F: 727 L
[4]; plasma, Cocktail (day 1)
  CL/F, Mean ± SD: 10.6 ± 2.3 L/h
  CL/F, Median (range): 9.9 (7.4–16.3) L/h
  tmax, Median (range): 1.50 (0.50–3.00) h
[4]; [19]
  CL/F, Mean ± SD: 7.9 ± 1.7 L/h
  CL/F, Median (range): 7.8 (4.6–11.6) L/h
  tmax, Median (range): 1.00 (0.50–2.50) h
[4]; plasma, Enzalutamide + cocktail (day 64), enzalutamide 160 mg once daily
  Cmax, Mean ± SD: 1690 ± 384 pg/mL
[5]; Mean ± SD, Cocktail (day 1)
  CL renal: 105 mL/min
[5]; Mean ± SD, Enzalutamide + cocktail (day 64)
  CL renal: 81.7 mL/min
[5]; Median (range), Cocktail (day 1)
  CL renal: 100 mL/min
[5]; Median (range), Enzalutamide + cocktail (day 64)
  CL renal: 78.3 mL/min
[5]; Cocktail (day 1)
  Aelast, Mean ± SD: 0.05 ± 0.01 mg
  Aelast%, GLSM: 19.4%
  Aelast%, Mean ± SD: 20.1 ± 5.1%
  Aelast%, Median (range): 21.3 (9.2–31.5) %
  Aelast, Median (range): 0.05 (0.02–0.08) mg
[5]; [20]
  Aelast, Mean ± SD: 0.05 ± 0.01 mg
  Aelast%, GLSM: 17.3%
  Aelast%, Mean ± SD: 18.2 ± 5.4%
  Aelast%, Median (range): 17.9 (6.6–26.5) %
  Aelast, Median (range): 0.04 (0.02–0.07) mg

## CNC(=O)c1ccc(N2C(=S)N(c3ccc(C#N)c(C(F)(F)F)c3)C(=O)C2(C)C)cc1F [enzalutamide]
[6]; CYP2C19
  inducer class: moderate inducer
[6]; CYP2C19 probe substrate
  reduction of exposure of probe substrate: 70%
[7]; CYP2C9
  inducer class: moderate inducer
[7]; CYP2C9 probe substrate
  reduction of exposure of probe substrate: 56%
[8]; oral
  AUC: 333 ± 57.8 µg·h/mL
  Cmax: 17200 ng/mL
[8]; po, 160 mg
  Cmax: 17100 ± 2800 ng/mL
[9]; CYP3A4
  inducer class: strong inducer
[9]; CYP3A4 probe substrate
  reduction of exposure of probe substrate: 86%
[1]; day 35
  Mean Ctrough: 14.1 µg/mL
[1]; day 64
  AUCtau, Median (range): 344 (210–435) h·µg/ml
  Ctrough, Mean ± SD: 13.9 µg/mL
  Ctrough, Median (range): 14.1 (8.3–19.4) µg/ml
[1]; day 64, listed as Enzalutamide
  Ctrough, Mean ± SD: 13.9 ± 2.9 µg/mL
[1]; day 68
  Mean Ctrough: 14.0 µg/mL
[1]; day 71
  Mean Ctrough: 14.0 µg/mL
[2]; GLSM ratios of digoxin less than two-fold, enzalutamide 160 mg once daily
  effect of enzalutamide on P-gp inhibition (class): mild
[3]; enzalutamide alone and in combination with digoxin and rosuvastatin
  tolerability: well tolerated
[3]; [21]
  patients with decreased white blood cell count (TEAE): 8.3%
  patients with dizziness (TEAE): 8.3%
  patients with urinary tract infection (TEAE): 8.3%
[3]; one eosinophilia, two decreased white blood cell count, three patients
  patients with TEAEs considered potentially related to enzalutamide: 12.5%
[3]; whole study
  deaths: no deaths
  serious TEAEs: No serious TEAEs were reported
  severity of all TEAEs: mild
[10]; 90% CI for Cmax and AUCinf GLSM ratios within 80–125%
  effect of enzalutamide on the PK of rosuvastatin (class): no effect
[11]
  CYP3A4 mRNA induction, % of positive control: 95.9%
  increase of CYP3A4 enzyme activity: up to 3.88 fold
  increase of CYP3A4 mRNA levels: ≤ 6.90 fold

## CC(C)c1nc(N(C)S(C)(=O)=O)nc(-c2ccc(F)cc2)c1/C=C/[C@@H](O)C[C@@H](O)CC(=O)O [rosuvastatin]
[3]
  TEAEs considered related to the drug: no TEAEs were considered to be related
[10]; [22]
  increase in Cmax (GLSM ratio): 6%
  reduction in AUClast (GLSM ratio): 14%
[10]; [23]
  AUCinf, GLSM ratio (95% CI): 89.3 (80.0–99.8)
  AUClast, GLSM ratio (95% CI): 86.1 (77.5–95.7)
[10]; rosuvastatin plasma, enzalutamide + cocktail (day 64) vs cocktail (day 1)
  Cmax, GLSM ratio (95% CI): 106.3 (94.7–119.3)
[4]; GLSM, plasma, Cocktail (day 1)
  AUC(0-inf): 62.7 ng·h/mL
  AUC(0-t): 56.7 ng·h/mL
  Cmax: 4.3 ng/mL
[4]; [14]
  AUC(0-inf): 56 ng·h/mL
  AUC(0-t): 48.8 ng·h/mL
[4]; [15]
  AUC(0-inf): 69.5 ng·h/mL
  AUC(0-t): 61.8 ng·h/mL
  Vd/F: 5400 ± 3950 L
  half-life: 0.938 ± 0.475 days
[4]; [17]
  AUC(0-inf): 59.7 ng·h/mL
  AUC(0-t): 52.8 ng·h/mL
  Vd/F: 5420 ± 3510 L
[4]; [16]
  AUC(0-inf): 68.6 ng·h/mL
  AUC(0-t): 56.1 ng·h/mL
  Cmax: 4.71 ng/mL
  Vd/F: 4310 L
[4]; [18]
  AUC(0-inf): 55.5 ng·h/mL
  AUC(0-t): 48.4 ng·h/mL
  Cmax: 4.49 ng/mL
  Vd/F: 3490 L
[4]; plasma, Cocktail (day 1)
  CL/F, Mean ± SD: 163 ± 68.5 L/h
  CL/F, Median (range): 146 (94.5–366) L/h
  tmax, Median (range): 4.0 (1.0–6.0) h
[4]; [19]
  CL/F, Mean ± SD: 186 ± 62.4 L/h
  CL/F, Median (range): 180 (91.6–314) L/h
  tmax, Median (range): 3.0 (0.5–6.0) h
